Laboratory results from patent US20240043401A1, “SALT FORM OF TETRA-SUBSTITUTED OLEFIN COMPOUND, CRYSTAL, AND PREPARATION METHOD THEREFOR” (CHIA TAI TIANQING PHARMACEUTICAL GROUP CO., LTD., priority 2020, published 2024).
In brackets after ≈: the same amount, converted by molar mass.

What was measured:
[1] = Solubility of crystalline forms (supersaturated suspension shaken at 37° C. for 24 h, HPLC-UV); format: physicochemical; conditions: thermodynamic from solid, 800 rpm
Experimental: 1-2 mg of a test sample was taken and placed in a semi-automatic filter vial, and 450 μL of purified water or FeSSIF simulated fluid (fed state simulated intestinal fluid) was added to give a supersaturated suspension. The sample was vortexed for at least 2 min. The vial was placed on a plate shaker and shaken at 37° C. at 800 rpm for 24 h. After centrifugal filtration, the sample was subjected to HPLC-UV linear quantitative analysis for concentration.
FeSSIF (fed state simulated intestinal fluid): an aqueous buffer solution comprising 0.282% (w/v) lecithin, 0.806% (w/v) sodium taurocholate, 0.865% (w/v) acetic acid, 1.52% (w/v) potassium chloride, with a pH of […]

[2] = In vivo pharmacokinetic study after a single oral dose; conditions: dog; female beagle dogs, single oral dose 100 mg/kg at 1 h after feeding, plasma, mean
Experimental: This experiment was intended to evaluate the pharmacokinetic behavior of the compound after a single intragastric administration and to investigate bioavailability after intragastric administration. Two female beagle dogs were each given a single oral dose of the crystalline form I of the compound of formula (II) at 100 mg/kg at 1 h after feeding, and plasma samples were taken at 0.0833 (5 min), 0.25 (15 min), 0.5 (30 min), 1, 2, 4, 6, 8, 12, and 24 h after administration and assayed for the concentration of the test substance by LC-MS/MS.

[3] = Forced degradation experiment; format: physicochemical
Experimental: Control group: 20 mg of a sample was weighed out, a proper amount of diluent (acetonitrile:water=1:1, v/v) was added to dissolve the sample, and then the solution was brought to a volume of 100 mL with the diluent (acetonitrile:water=1:1, v/v). A proper amount of the solution was taken for analysis. Acidic degradation: 20 mg of the sample was weighed out, and 1 mL of a 1 M aqueous HCl solution was added. After sitting at room temperature for 24 h, the mixture was neutralized with 1 mL of a 1 M aqueous NaOH solution. The solution was brought to a volume of 100 mL with the diluent (acetonitrile:water=1:1, v/v). A proper amount of the solution was taken for analysis. Basic degradation: 20 mg of the sample was weighed out, and 1 mL of a 1 M aqueous NaOH solution was added. After sitting at room temperature for 24 h, the mixture was neutralized with 1 mL of a 1 M aqueous HCl solution. The solution was brought to a volume of 100 mL with the diluent (acetonitrile:water=1:1, v/v). A proper amount of the solution was taken for analysis. Oxidative degradation: 20 mg of the sample was weighed out, 1 mL of a 3% aqueous hydrogen peroxide solution was added, and the mixture was left at room temperature for 24 h. The solution was brought to a volume of 100 mL with the diluent (acetonitrile:water=1:1, v/v). A proper amount of the solution was taken for analysis.

[4] = Dynamic vapor sorption (DVS) hygroscopicity; format: physicochemical; conditions: from the DVS patterns, 25° C.
Experimental: 1.4. Dynamic Vapor Sorption (DVS) Method of the Present Application
Instrument model: DVS Intrinsic instrument from SMS (Surface Measurement Systems) Inc.
Temperature: 25° C.; sample amount: 10-30 mg; protective gas and flow: N2, 200 mL/min; dm/dt: 0.002%/min; minimum dm/dt equilibration time: 10 min; maximum equilibration time: 180 min; RH range: 0% RH-95% RH-0% RH; RH gradient: 10% (90% RH-0% RH-90% RH), 5% (95% RH-90% RH and 90% RH-95% RH).

[5] = oral administration; cited from earlier work
breast cancer patients = conditions: intramuscular injection; cited from earlier work
[6] = Vehicle: FeSSIF (fed state simulated intestinal fluid)

CC/C(=C(/c1ccc(OCCNC/C=C/C(=O)N(C)C)nc1)c1[nH]c2ccccc2c1Cl)c1ccccc1.Cl [listing 1 of 2 here]
solubility at 24 h ([1]; purified water, Vehicle: Water): 237 µg/mL
solubility at 24 h [1, 6]: 1900 µg/mL
AUC(0-t) [2]: 229 µM·h
Cmax [2]: 14 µM
Tmax [2]: 6 h
half-life [2]: 14.9 h
Total impurities ([3]; Acidic degradation: 1 M aqueous HCl, room temperature, 24 h, listed as crystalline form I of the compound of formula (II)): 0.34%
Total impurities ([3]; Basic degradation: 1 M aqueous NaOH, room temperature, 24 h, listed as crystalline form I of the compound of formula (II)): 0.35%
Total impurities ([3]; Not degraded (control group, dissolved in acetonitrile:water 1:1), listed as crystalline form I of the compound of formula (II)): 0.34%
Total impurities ([3]; Oxidative degradation: 3% aqueous hydrogen peroxide, room temperature, 24 h, listed as crystalline form I of the compound of formula (II)): 0.92%
Hygroscopicity [4]: lower hygroscopicity than the amorphous form

CC/C(=C(/c1ccc(OCCNC/C=C/C(=O)N(C)C)nc1)c1[nH]c2ccccc2c1Cl)c1ccccc1.O=C(O)/C=C/C(=O)O
solubility at 24 h [1, 6]: 1950 µg/mL

CC/C(=C(/c1ccc(OCCNC/C=C/C(=O)N(C)C)nc1)c1[nH]c2ccccc2c1Cl)c1ccccc1
solubility at 24 h ([1]; purified water, Vehicle: Water): < 0.8 µg/mL
solubility at 24 h [1, 6]: 316 µg/mL (≈ 597 µM)

Br.CC/C(=C(/c1ccc(OCCNC/C=C/C(=O)N(C)C)nc1)c1[nH]c2ccccc2c1Cl)c1ccccc1
solubility at 24 h [1, 6]: 1370 µg/mL

CC/C(=C(/c1ccc(OCCNC/C=C/C(=O)N(C)C)nc1)c1[nH]c2ccccc2c1Cl)c1ccccc1.Cl [listing 2 of 2 here]
Total impurities ([3]; Acidic degradation: 1 M aqueous HCl, room temperature, 24 h): 0.56%
Total impurities ([3]; Basic degradation: 1 M aqueous NaOH, room temperature, 24 h): 0.54%
Total impurities ([3]; Not degraded (control group, dissolved in acetonitrile:water 1:1)): 0.60%
Total impurities ([3]; Oxidative degradation: 3% aqueous hydrogen peroxide, room temperature, 24 h): 3.5%

C[C@]12CC[C@@H]3c4ccc(O)cc4C[C@@H](CCCCCCCCC[S+]([O-])CCCC(F)(F)C(F)(F)F)[C@H]3[C@@H]1CC[C@@H]2O (stereo partly drawn) [fulvestrant]
Bioavailability [5]: zero
Clinical response rate (breast cancer patients): about 50%
